Tests used:
[1] = Emulsion stability testing of nonionic emulsifiers, Hallcomid solvent series; type: physicochemical; set-up: key: C = creamy; CO = creamy oil; O = oil; GC = gritty cream; NS = no separation; OC = oily cream; details: Bifenthrin 240 g/L in Hallcomid M-8-10, 34 ppm water
Procedure: (§1) Nonionic samples contain a low amount of water (<1%) and are prepared as emulsifiable concentrates with three pesticides using two different solvent systems. In the aromatic solvent series, the nonionic sample replaces Toximul® 8240 (castor oil ethoxylate, 36 POE, Stepan), and in the Hallcomid™ (N,N-dimethylcaprylamide/N,N-dimethylcapramide, Stepan) solvent series, the nonionic sample replaces Ninex® MT-630F.
(§2) Hallcomid Solvent Series.
(§3) Sample preparation: The surfactants are combined and stirred until homogeneous, with the nonionic sample melted if needed prior to combination. Controls 1-3 are made by using Ninex MT-630F in the amounts indicated instead of the nonionic sample.
(§4) Emulsion Stability Testing
(§5) A Mohr pipette is used to feed pesticide/surfactant concentrates to each cylinder.

[2] = as above; type: physicochemical; set-up: key to 24 h separation, appearance / 1 h separation, appearance / 1 h separation, amount: C = creamy; CO = creamy oil; O = oil; GC = gritty cream; NS = no separation; OC = oily cream; key to Spon. (spontaneity): G = good; F = fair; P = poor
Procedure: as §1, §2, §3, §4, §5

[3] = Emulsion stability testing of nonionic emulsifiers, aromatic solvent series; type: physicochemical; set-up: key to 24 h separation, appearance / 1 h separation, appearance / 1 h separation, amount: C = creamy; CO = creamy oil; O = oil; GC = gritty cream; NS = no separation; OC = oily cream; key to Spon. (spontaneity): G = good; F = fair; P = poor
Procedure: as §1
Sample preparation: Ninate® 60E (calcium alkylbenzenesulfonate, Stepan) and the test sample are stirred until homogeneous. […] Controls 1-3 are made by using Toximul 8240 in the amounts indicated instead of the nonionic sample.
Formulations: • 1. Bifenthrin, 240 g/L (2.99 g), Aromatic 100 (ExxonMobil, 8.05 g), Ninate 60E (0.38 g), and nonionic sample or Toximul 8240 (0.58 g). • 2. 2,4-D ester, 480 g/L (8.90 g), Exxsol® D-110 (ExxonMobil, 2.50 g), Ninate 60E (0.36 g), and nonionic sample or Toximul 8240 (0.24 g). • 3. Tebuconazole, 360 g/L (4.45 g), N-methyl-2-pyrrolidone (6.35 g), Ninate 60E (0.48 g), nonionic sample or Toximul 8240 (0.72 g).
as §4, §5

[4] = Agrichemical solvent analysis: active solubility; type: physicochemical; details: room temperature
Procedure: Solvency strength of potential agrichemical solvents is evaluated by identifying the solubility level of three standard pesticides in the solvent by weight percent: 2,4-D acid, imidacloprid, and tebuconazole. […] The active material is also accurately weighed before addition. Initial amounts of active material are approximately: 2,4-D: 0.3 g; imidacloprid: 0.02 g; tebuconazole: 0.3 g. Solvent and pesticide active are combined, allowed to mix for 1 h at room temperature, and then inspected for the presence of undissolved active material. Additional active material is added in appropriately small increments until it no longer dissolves completely. This mixture is then stirred for 24 h at room temperature, and if the active has completely dissolved, additional active ingredient is added and the mixture is stirred another 24 h at room temperature. The percent solubility is recorded, and performance is compared with that of a standard agricultural solvent.

[5] = Surfactant phase behavior study (cross-polarized microscopy); type: physicochemical; details: room temperature
Procedure: Phase behavior is observed using an Olympus BH-2 cross-polarized microscope at 100-400× and room temperature (20° C. to 22° C.). The inventive monounsaturated alcohol ethoxylates are compared with their saturated analogs.
Samples are prepared by diluting the most concentrated product gradually with deionized water. When the surfactant concentration approaches a phase transition, the concentration is varied at 2-4% intervals to estimate the phase boundary. The actives level reported in Table 4 for each phase boundary is within ±5% of the true boundary.
Samples are loaded between a microscope slide and cover glass and are allowed to equilibrate before observation. Microscopic texture is analyzed and used to determine the phase. For some samples, an AR 2000 rheometer (TA Instruments) is used to measure viscosity at 25° C. to further verify phase behavior.

[6] = 0.4 wt. % active, 342 ppm hard water
Procedure: Surfactant solution (100 mL) is carefully transferred to a stainless-steel mixing cup, then mixed at high speed (27K rpm) using a Hamilton Beach mixer for 10 s. The contents are quickly poured into a 100-mL graduated cylinder to the 100-mL mark, and a stopwatch is immediately started. The amount of liquid settling in the cylinder is recorded every 15 s for 4 min. Less liquid drained indicates greater foam stability.

[7] = 2,4-D diester 480 g/L in Hallcomid M-8-10, 34 ppm water
[8] = 2,4-D diester 480 g/L in Hallcomid M-8-10, 1000 ppm water
[9] = Bifenthrin 240 g/L in Hallcomid M-8-10, 34 ppm water
[10] = Bifenthrin 240 g/L in Hallcomid M-8-10, 1000 ppm water
[11] = Tebuconazole 360 g/L in Hallcomid M-8-10, 34 ppm water
[12] = Tebuconazole 360 g/L in Hallcomid M-8-10, 1000 ppm water
[13] = 2,4-D ester 480 g/L in Exxsol D-110, 34 ppm water
[14] = 2,4-D ester 480 g/L in Exxsol D-110, 1000 ppm water
[15] = Bifenthrin 240 g/L in Aromatic 100, 34 ppm water
[16] = Bifenthrin 240 g/L in Aromatic 100, 1000 ppm water
[17] = Tebuconazole 360 g/L in N-methyl-2-pyrrolidone, 34 ppm water
[18] = Tebuconazole 360 g/L in N-methyl-2-pyrrolidone, 1000 ppm water

CCC=CCCCCCCCCOCCO (mixture of isomers) [A12-4]
24 h separation, amount [1]: NS
1 h separation, amount [2, 7]: 6.2 mL
1 h separation, appearance [2, 7]: C
24 h separation, amount [2, 7]: 8.8 mL
24 h separation, appearance [2, 7]: C
Spon. (spontaneity) [2, 7]: F
1 h separation, amount [2, 8]: 6.9 mL
1 h separation, appearance [2, 8]: C
24 h separation, amount [2, 8]: 8.6 mL
24 h separation, appearance [2, 8]: C
Spon. (spontaneity) [2, 8]: F
1 h separation, amount [2, 9]: NS
Spon. (spontaneity) [2, 9]: G
1 h separation, amount [2, 10]: 11 mL
1 h separation, appearance [2, 10]: C
24 h separation, amount [2, 10]: 2 O, 3 CO
Spon. (spontaneity) [2, 10]: F
1 h separation, amount [2, 11]: 3.1 mL
1 h separation, appearance [2, 11]: C
24 h separation, amount [2, 11]: 5.9 mL
24 h separation, appearance [2, 11]: C
Spon. (spontaneity) [2, 11]: F
1 h separation, amount [2, 12]: 3.1 mL
1 h separation, appearance [2, 12]: C
24 h separation, amount [2, 12]: 6 mL
24 h separation, appearance [2, 12]: C
Spon. (spontaneity) [2, 12]: F
1 h separation, amount [3, 13]: 6 mL
1 h separation, appearance [3, 13]: C
24 h separation, amount [3, 13]: 6.7 mL
24 h separation, appearance [3, 13]: C
Spon. (spontaneity) [3, 13]: P
1 h separation, amount [3, 14]: 4.7 mL
1 h separation, appearance [3, 14]: O
24 h separation, amount [3, 14]: 4.5 mL
24 h separation, appearance [3, 14]: O
Spon. (spontaneity) [3, 14]: P
1 h separation, amount [3, 15]: 8 mL
1 h separation, appearance [3, 15]: C
Spon. (spontaneity) [3, 15]: P
1 h separation, amount [3, 16]: 5.2 mL
1 h separation, appearance [3, 16]: O
24 h separation, amount [3, 16]: 5.2 mL
24 h separation, appearance [3, 16]: O
Spon. (spontaneity) [3, 16]: P
1 h separation, amount [3, 17]: 2.3 mL
1 h separation, appearance [3, 17]: C
24 h separation, amount [3, 17]: 2.5 mL
24 h separation, appearance [3, 17]: GC
Spon. (spontaneity) [3, 17]: P
1 h separation, amount [3, 18]: 2.3 mL
1 h separation, appearance [3, 18]: C
24 h separation, amount [3, 18]: 2.7 mL
24 h separation, appearance [3, 18]: GC
Spon. (spontaneity) [3, 18]: P

C=CCCCCCCCCOCCO [A10-4]
24 h separation, amount [1]: NS
1 h separation, amount [2, 7]: 6 mL
1 h separation, appearance [2, 7]: C
24 h separation, amount [2, 7]: 9.5 mL
24 h separation, appearance [2, 7]: C
Spon. (spontaneity) [2, 7]: F
1 h separation, amount [2, 8]: 6.5 mL
1 h separation, appearance [2, 8]: C
24 h separation, amount [2, 8]: 8 mL
24 h separation, appearance [2, 8]: C
Spon. (spontaneity) [2, 8]: F
1 h separation, amount [2, 9]: NS
Spon. (spontaneity) [2, 9]: F
1 h separation, amount [2, 10]: Tr. GC, 12 C
24 h separation, amount [2, 10]: 3.5 O, 3 CO
Spon. (spontaneity) [2, 10]: F
1 h separation, amount [2, 11]: 3 mL
1 h separation, appearance [2, 11]: C
24 h separation, amount [2, 11]: 6.5 mL
24 h separation, appearance [2, 11]: C
Spon. (spontaneity) [2, 11]: F
1 h separation, amount [2, 12]: 4 mL
1 h separation, appearance [2, 12]: C
24 h separation, amount [2, 12]: 5.8 mL
24 h separation, appearance [2, 12]: C
Spon. (spontaneity) [2, 12]: F
1 h separation, amount [3, 13]: 4.5 mL
1 h separation, appearance [3, 13]: CO
24 h separation, amount [3, 13]: 2 O, 1 CO, 2 C
Spon. (spontaneity) [3, 13]: P
1 h separation, amount [3, 14]: 3.8 mL
1 h separation, appearance [3, 14]: O
24 h separation, amount [3, 14]: 4 mL
24 h separation, appearance [3, 14]: O
Spon. (spontaneity) [3, 14]: P
1 h separation, amount [3, 15]: 7.5 mL
1 h separation, appearance [3, 15]: CO
24 h separation, amount [3, 15]: 3 O, 3 CO
Spon. (spontaneity) [3, 15]: P
1 h separation, amount [3, 16]: 6 mL
1 h separation, appearance [3, 16]: O
24 h separation, amount [3, 16]: 6 mL
24 h separation, appearance [3, 16]: O
Spon. (spontaneity) [3, 16]: P
1 h separation, amount [3, 17]: 2 mL
1 h separation, appearance [3, 17]: GC
24 h separation, amount [3, 17]: 3 mL
24 h separation, appearance [3, 17]: GC
Spon. (spontaneity) [3, 17]: P
1 h separation, amount [3, 18]: 3 mL
1 h separation, appearance [3, 18]: GC
24 h separation, amount [3, 18]: 4 mL
24 h separation, appearance [3, 18]: GC
Spon. (spontaneity) [3, 18]: P

CCCCCCCCCC(=O)N(C)C [N,N-dimethylcapramide, reference compound]
solubility of 2,4-D Acid in the solvent [4]: 45.4 weight percent
solubility of Imidacloprid in the solvent [4]: 4.2 weight percent
solubility of Tebuconazole in the solvent [4]: 38.8 weight percent

CN1CCCC1=O [N-methyl-2-pyrrolidone, reference compound]
solubility of 2,4-D Acid in the solvent [4]: 39.5 weight percent
solubility of Imidacloprid in the solvent [4]: 29.3 weight percent
solubility of Tebuconazole in the solvent [4]: 62.2 weight percent

CCCCCCCCCCOCCOCCOCCO [sat. analog of A10-7]
combined isotropic phases (clear and opaque), share of the total [5]: about 38%
Isotropic Clear phase region ([5]; in deionized water): 90-100 % Actives Level
Isotropic Opaque phase region ([5]; in deionized water): 0-28 % Actives Level
Lamellar phase region ([5]; in deionized water): 28-90 % Actives Level

CCCCCCCCCCOCCOCCOCCOCCOCCO [sat. analog of A10-10]
Lamellar phase region ([5]; in deionized water): 55-80 % Actives Level

CCCCCCCCCCOCCOCCOCCOCCOCCOCCOCCO [sat. analog of A10-13]
Lamellar phase region ([5]; in deionized water): 43-60 % Actives Level

CCCCCCCCCCOCCOCCOCCOCCOCCOCCOCCOCCOCCOCCOCCOCCOCCOCCOCCO [sat. analog of A10-16]
Cubic phase region ([5]; in deionized water): 37-55 % Actives Level
Paste phase region ([5]; in deionized water): 93-100 % Actives Level

CCCCCCCCCCCCOCCOCCOCCO [sat. analog of A12-7]
combined isotropic phases (clear and opaque), share of the total [5]: about 38%
Isotropic Clear phase region ([5]; in deionized water): 90-100 % Actives Level
Isotropic Opaque phase region ([5]; in deionized water): 0-28 % Actives Level
Lamellar phase region ([5]; in deionized water): 28-90 % Actives Level

CCCCCCCCCCCCOCCOCCOCCOCCOCCO [sat. analog of A12-10]
Lamellar phase region ([5]; in deionized water): 40-83 % Actives Level
Lamellar/Isotropic phase region ([5]; in deionized water): 30-40 % Actives Level

CCCCCCCCCCCCOCCOCCOCCOCCOCCOCCOCCO [sat. analog of A12-13]
Hexagonal phase region ([5]; in deionized water): 30-67 % Actives Level
Lamellar phase region ([5]; in deionized water): 67-90 % Actives Level

CCCCCCCCCCCCOCCOCCOCCOCCOCCOCCOCCOCCOCCOCCOCCOCCOCCOCCOCCO [sat. analog of A12-16]
Cubic phase region ([5]; in deionized water): 28-50 % Actives Level
Hexagonal phase region ([5]; in deionized water): 50-73 % Actives Level
Paste phase region ([5]; in deionized water): 93-100 % Actives Level

ammonium alkyl ether sulfate [Control 3, reference compound]
Liquid volume at drain time 0.5 min [6]: 0.25 mL
Liquid volume at drain time 1.0 min [6]: 1.00 mL
Liquid volume at drain time 1.5 min [6]: 2.00 mL
Liquid volume at drain time 2.0 min [6]: 3.00 mL
Liquid volume at drain time 2.5 min [6]: 4.00 mL
Liquid volume at drain time 3.0 min [6]: 5.25 mL
Liquid volume at drain time 3.5 min [6]: 6.50 mL
Liquid volume at drain time 4.0 min [6]: 7.50 mL
